Results taken from PMC8951750, “In Vitro Anticancer and Cancer-Preventive Activity of New Triterpene Glycosides from the Far Eastern Starfish Solaster pacificus” (Marine Drugs, 2022).
Where “and” joins values, the source holds several entries; their conditions need not be identical. Identical values can stand only once. Like-named read-outs stand apart in the source and are kept apart here.

Key:
[1] = system: Human erythrocytes (O(I)+); assay: Hemolysis assay; type: cell-based; settings: 1 h, 37 °C, PBS pH 7.4
Method: Human erythrocytes (O(I)+) were obtained from Vladivostok blood transfusion station. Erythrocytes were centrifuged with PBS (pH 7.4) for 5 min at 4 °C by 450× g on a LABOFUGE 400R (Heraeus, Hanau, Germany) centrifuge three times. Then, the residue of erythrocytes was resuspended in ice-cold PBS (pH 7.4) to a final optical density of 2.0 at 700 nm and kept on ice. For the hemolytic assay, 180 µL of erythrocyte suspension was mixed with 20 µL of Cucumarioside A2-2 (positive control) and investigated compounds at concentrations range of 0.1, 0.5, 1, 5, 10 µM in V-bottom 96-well plates. After 1 h of incubation at 37 °C, plates were centrifuged at 900× g for 10 min on an LMC-3000 (Biosan, Riga, Latvia) laboratory centrifuge. Then, we carefully selected 100 µL of supernatant and transferred it to new flat plates, respectively. Lysis of erythrocytes was determined by measuring the concentration of hemoglobin in the supernatant with a microplate photometer Multiskan FC (Thermo Fisher Scientific, Waltham, MA, USA) at 570 nm. The effective dose causing 50% of erythrocytes hemolysis (ED50) was calculated using the computer program SigmaPlot 10.0. All experiments were made in triplicate, p < 0.01.

[2] = system: SK-MEL-2 cells; assay: Soft agar assay, colony formation of cancer cells; type: cell-based, human; settings: compound 0.1 µM, 14 days
Method: SK-MEL-2 cells (2.4 × 10^4) were treated either with DMSO (control) or the triterpene glycosides 1–9 from S. pacificus (0.1 µM) in 1 mL of agar mix. After 14 days, colonies of cancer cells were scored as described above.

[3] = system: non-cancerous mouse epidermal cells JB6 Cl41; assay: Cell viability, MTS assay, JB6 Cl41; type: cell-based
Method: (§1) MTS assay was used to measure the cell viability of tested normal and cancer cells. Cells were seeded into 96-well plates (“Jet Biofil”, Guangzhou, China) at density of 1.0 × 10^4/200 µL for 24 h at 37 °C in a 5% CO2 incubator. Then, cell monolayer was treated either with DMSO (control) or various concentrations of the triterpene glycosides 1–9 from S. pacificus (0.1, 0.5, 2.5, 12.5, 62.5 µM) in fresh appropriate culture medium for 24 h. Subsequently, the cells were incubated with 15 µL of 3-(4,5-dimethylthiazol-2-yl)-5-(3-carboxymethoxyphenyl)-2-(4-sulfophenyl)-2H-tetrazolium (MTS reagent) (“Promega”, Madison, WI, USA) for 3 h, and the absorbance of each well was measured at 490/630 nm using Power Wave XS microplate reader (“BioTek”, Wynusky, VT, USA). The concentration at which the compounds exert half of their maximal inhibitory effect on cell viability (IC50) was calculated by the AAT-Bioquest® online calculator [39]. The selectivity index (SI) was calculated as described previously using the following formula SI = IC50 of the compounds in normal cell (JB6 Cl41)/IC50 of the same compounds in human melanoma cell lines (SK-MEL-2, SK-MEL-28, or RPMI-7951).

[4] = system: human melanoma cells RPMI-7951; assay: Cell viability, MTS assay, RPMI-7951; type: cell-based; settings: for SI (selectivity index) RPMI-7951: IC50 JB6 Cl41 / IC50 RPMI-7951
Method: as §1

[5] = system: JB6 Cl41 cells; assay: Soft agar assay, TPA-induced neoplastic cell transformation; type: cell-based, mouse; settings: for inhibition of TPA-induced neoplastic transformation of JB6 Cl41 cells: compound 0.1 µM, TPA 10 ng/mL, soft agar, 2 weeks, vs positive control, 0.1 µM
Method: (§2) JB6 Cl41 cells (2.4 × 10^4) were exposed to epidermal growth factor (EGF) (1 ng/mL) or phorbol 12-myristate 13-acetate (TPA) (10 ng/mL) and treated either with DMSO (control) or the triterpene glycosides 1–9 from S. pacificus (0.1, 0.5, and 1 µM) in 1 mL of 0.3% basal medium Eagle (BME) agar containing 10% FBS, 2 mM L-glutamine, and 25 µg/mL gentamicin (agar mix). The cultures were maintained in a humidified atmosphere with 5% CO2 at 37 °C for 14 days, and the cell’s colonies were scored using a microscope, Motic AE 20 (XiangAn, Xiamen, China), and the ImageJ software bundled with 64-bit Java 1.8.0_112 (NIH, Bethesda, MD, USA). To determine the effect of investigated compounds on neoplastic cell transformation induced by ionizing radiation (X-ray or UVB), JB6 Cl41 cells (3 × 10^5/dish) were seeded in 60 mm dishes and cultured for 24 h at 37 °C in 5% CO2 incubator. Then, the cells were exposed to X-rays (X-ray system XPERT 80 (KUB Technologies, Inc, Milford, CT, USA)) at dose of 0.5 Gy or UVB (wavelengths below 312 nm) (Bio-Link UV irradiation system, Vilber, France) at dose of 0.3 J/cm^2 three times a week for 3 weeks. Irradiated JB6 Cl41 cells (2.4 × 10^4) were treated either with DMSO (control) or the triterpene glycosides 1–9 from S. pacificus (0.1, 0.5, and 1 µM) in 1 mL of agar mix. The cultures were maintained in a humidified atmosphere with 5% CO2 at 37 °C for 14 days, and the cell’s colonies were scored using a microscope, Motic AE 20 (XiangAn, Xiamen 361101, China), and the ImageJ software bundled with 64-bit Java 1.8.0_112 (NIH, Bethesda, MD, USA).

[6] = system: JB6 Cl41 cells; assay: Soft agar assay, EGF-induced neoplastic cell transformation; type: cell-based, mouse; settings: for inhibition of EGF-induced neoplastic transformation of JB6 Cl41 cells: compound 0.1 µM, EGF 1 ng/mL, soft agar, 2 weeks, vs positive control, 0.1 µM
Method: as §2

[7] = system: human melanoma cells SK-MEL-2; assay: Cell viability, MTS assay, SK-MEL-2; type: cell-based; settings: for SI (selectivity index) SK-MEL-2: IC50 JB6 Cl41 / IC50 SK-MEL-2
Method: as §1

[8] = system: JB6 Cl41 cells; assay: Soft agar assay, UVB-induced neoplastic cell transformation; type: cell-based, mouse; settings: for inhibition of UVB-induced neoplastic cell transformation (decrease of colonies number): compound 0.1 µM, UVB 0.3 J/cm^2 three times a week for 3 weeks, soft agar
Method: as §2

[9] = system: human melanoma cells SK-MEL-28; assay: Cell viability, MTS assay, SK-MEL-28; type: cell-based; settings: for SI (selectivity index) SK-MEL-28: IC50 JB6 Cl41 / IC50 SK-MEL-28
Method: as §1

[10] = system: JB6 Cl41 cells; assay: Soft agar assay, X-ray-induced neoplastic cell transformation; type: cell-based, mouse; settings: for inhibition at 0.1 µM: Mus musculus, JB6 Cl41, 504 h, read-out: inhibition of X-ray-induced cell transformation (JB6 Cl41 colonies formation), compound 0.1 µM, X-rays 0.5 Gy three times a week for 3 weeks, soft agar; for inhibition of X-ray-induced cell transformation (JB6 Cl41 colonies formation): compound 0.1 µM, X-rays 0.5 Gy three times a week for 3 weeks, soft agar
Method: as §2

[11] = read-out: IC50, cell viability JB6 Cl41, MTS assay, 24 h, normal cells
[12] = read-out: IC50, cell viability RPMI-7951, MTS assay, 24 h
[13] = read-out: IC50, cell viability SK-MEL-2, MTS assay, 24 h
[14] = read-out: IC50, cell viability SK-MEL-28, MTS assay, 24 h

| SMILES | ED50, effective dose causing 50% of erythrocytes hemolysis [1] | decrease of colonies number of SK-MEL-2 cells (colony formation) [2] [%] | IC50 [3, 11] [µM] | SI (selectivity index) RPMI-7951 [4] | IC50 [4, 12] [µM] | inhibition of TPA-induced neoplastic transformation of JB6 Cl41 cells [5] [%] | inhibition of EGF-induced neoplastic transformation of JB6 Cl41 cells [6] [%] | IC50 [7, 13] [µM] | IC50 [9, 14] [µM] | inhibition at 0.1 µM [10] [%] | SI (selectivity index) SK-MEL-2 [7] | inhibition of UVB-induced neoplastic cell transformation (decrease of colonies number) [8] | SI (selectivity index) SK-MEL-28 [9] | further results |
| --- | --- | --- | --- | --- | --- | --- | --- | --- | --- | --- | --- | --- | --- | --- |
| COC1C(O)C(CO)OC(OC2C(O)C(CO)OC(OC3C(C)OC(OC4C(OC5CCC6(C)C7CCC89C(=O)OC(C)(C=CC=C(C)C)C8C(OC(C)=O)CC9(C)C7=CCC6C5(C)C)OCC(O)C4O)C(OC4OCC(O)C(O)C4O)C3O)C2O)C1O (stereo not shown) [Compound 4, cucumarioside D] | 2.48 µM and 2.48 ± 0.05 µM | 70 | 6.1 ± 0.4 | 0.2 | 29.2 ± 0.04 | 99 | 92 | 0.67 ± 0.04 | 8.3 ± 0.1 | 97 | – | – | – | inhibition at 0.1 µM ([8]; Mus musculus, JB6 Cl41, light or radiation study, 504 h, read-out: inhibition of UVB-induced neoplastic cell transformation (decrease of colonies number), compound 0.1 µM, UVB 0.3 J/cm^2 three times a week for 3 weeks, soft agar): 86% |
| CC(=O)OC1CC2(C)C3=CCC4C(C)(C)C(OC5OCC(O)C(O)C5OC5OC(C)C(OC6OC(CO)C(O)C(O)C6O)C(O)C5OC5OCC(O)C(O)C5O)CCC4(C)C3CCC23C(=O)OC(C)(C=CC=C(C)C)C13 [Compound 5, 3β-O-{β-D-glucopyranosyl-(1→4)-[β-D-xylopyranosyl-(1→2)]-β-D-quinovopyranosyl-(1→2)-β-D-xylopyranosyl}-16β-acetoxyholosta-7,22Z,24-triene] | 7.02 ± 0.46 µM | 13 | – | 0.23 | – | 17 | 16 | – | – | – | 0.2 | not effective | 0.3 | IC50 ([3]; MTS assay, 24 h, normal cells, read-out: IC50, cell viability JB6 Cl41): 8.7 ± 0.2 µM; IC50 ([4]; MTS assay, 24 h, read-out: IC50, cell viability RPMI-7951): 38 ± 0.3 µM; IC50 ([7]; MTS assay, 24 h, read-out: IC50, cell viability SK-MEL-2): 37.3 ± 0.01 µM; IC50 ([9]; MTS assay, 24 h, read-out: IC50, cell viability SK-MEL-28): 25.3 ± 0.09 µM; inhibition of X-ray-induced cell transformation (JB6 Cl41 colonies formation) [10]: less than 15% |
| COC1C(O)COC(OC2C(O)C(COS(=O)(=O)O)OC(OC3C(C)OC(OC4C(OC5CCC6(C)C7CCC89C(=O)OC(C)(C=CC=C(C)C)C8C(OC(C)=O)CC9(C)C7=CCC6C5(C)C)OCC(O)C4O)C(O)C3O)C2O)C1O [Compound 6, 3β-O-{3-O-methyl-β-D-xylopyranosyl-(1→3)-6-O-6-sulfoxy-β-D-glucopyranosyl-(1→4)-β-D-quinovopyranosyl-(1→2)-β-D-xylopyranosyl}-16β-acetoxyholosta-7,22Z,24-triene] | 1.68 µM and 1.68 ± 0.14 µM | 40 | 6.6 ± 0.3 | 0.2 | 32.4 ± 0.5 | 61 | 44 | 0.69 ± 0.03 | 8.2 ± 0.2 | – | 9.5 | – | 0.8 | inhibition of UVB-induced neoplastic cell transformation (decrease of colonies number) ([8]; 0.1 µM): 10%; inhibition of X-ray-induced cell transformation (JB6 Cl41 colonies formation) ([10]; 0.1 µM): 23% |
| C=C(C)C1C2CC3(C)C4=CCC5C(C)(C)C(OC6OCC(O)C(O)C6OC6OC(C)C(OC7OC(CO)C(O)C(OC8OC(CO)C(O)C(OC)C8O)C7O)C(O)C6OC6OCC(O)C(O)C6O)CCC5(C)C4CCC13C(=O)O2 [Compound 7, 3β-O-{3-O-methyl-β-D-glucopyranosyl-(1→3)-β-D-glucopyranosyl-(1→4)-[β-D-xylopyranosyl-(1→2)]-β-D-quinovopyranosyl-(1→2)-β-D-xylopyranosyl}-23,24,25,26,27-pentanor-5α-lanosta-7,20(22)-diene-18(16)-lactone] | 4.07 ± 0.10 µM | 15 | – | 0.25 | – | – | – | – | – | < 15 | – | not effective | 0.3 | IC50 ([3]; Mus musculus, JB6 Cl41, 24 h, read-out: IC50, cell viability JB6 Cl41, MTS assay, 24 h, normal cells): 8.7 ± 0.07 µM; IC50 ([4]; Homo sapiens, RPMI-7951, 24 h, read-out: IC50, cell viability RPMI-7951, MTS assay, 24 h): 31.4 ± 0.1 µM; inhibition at 0.1 µM ([5]; Mus musculus, JB6 Cl41, 336 h, read-out: inhibition of TPA-induced neoplastic transformation of JB6 Cl41 cells, compound 0.1 µM, TPA 10 ng/mL, soft agar, 2 weeks, vs positive control): 33%; inhibition at 0.1 µM ([6]; Mus musculus, JB6 Cl41, 336 h, read-out: inhibition of EGF-induced neoplastic transformation of JB6 Cl41 cells, compound 0.1 µM, EGF 1 ng/mL, soft agar, 2 weeks, vs positive control): 20%; IC50 ([7]; Homo sapiens, SK-MEL-2, 24 h, read-out: IC50, cell viability SK-MEL-2, MTS assay, 24 h): 5.6 ± 0.1 µM; IC50 ([9]; Homo sapiens, SK-MEL-28, 24 h, read-out: IC50, cell viability SK-MEL-28, MTS assay, 24 h): 23 ± 0.07 µM |
